This is an account of results in US9199970B2, “4-[5-(pyridin-4-yl)-1H-1,2,4-triazol-3-yl]pyridine-2-carbonitrile crystalline polymorph and production method therefor” (FUJIYAKUHIN CO., LTD., priority 2012, dated 2015).

This data set in a line: Solubility test of various crystal forms (water solubility). It counts as physicochemical. Particulars: concentration of saturated solution determined through measuring absorbance (FIG. 8). The method, then:
Solubility Test of Various Crystal Forms
The water solubilities of type I crystals, type II crystals, and the hydrate of compound (1) were determined by calculating each sample concentration of its saturated solution determined through measuring absorbance.

Each structure is given as a SMILES string. ≈ marks a conversion by molar mass, not a printed value.

The molecule `N#Cc1cc(-c2n[nH]c(-c3ccncc3)n2)ccn1` [type I crystals, 4-[5-(pyridin-4-yl)-1H-1,2,4-triazol-3-yl]pyridine-2-carbonitrile] came in with a water solubility of 6.2 µg/mL (≈ 25 µM).

Molecule `N#Cc1cc(-c2n[nH]c(-c3ccncc3)n2)ccn1` [type II crystals, 4-[5-(pyridin-4-yl)-1H-1,2,4-triazol-3-yl]pyridine-2-carbonitrile] yielded a water solubility of 4.2 µg/mL (≈ 16.9 µM).

With `N#Cc1cc(-c2n[nH]c(-c3ccncc3)n2)ccn1` [hydrate, 4-[5-(pyridin-4-yl)-1H-1,2,4-triazol-3-yl]pyridine-2-carbonitrile], the water solubility worked out at 1.9 µg/mL.
